Here are results for one molecule from patent publication US20140066394A1, “Substituted 6-(Benzylamino) Purine Riboside Derivatives, Use Thereof and Compositions Containing These Derivatives” (Biopatterns, S.R.O, priority 2009, published 2014).

The subject of test [1] is human skin melanoma G-361. The test is described as follows: In vitro cytotoxicity, Calcein AM assay, G-361. It is filed as cell-based. To be noted: Homo sapiens, G-361, 72 hours. The text has this:
Low cytotoxicity of the compounds is the major property determining the cosmetic use. One of the parameters used, as the basis for cytotoxicity assays, is the metabolic activity of viable cells. For example, a microtiter assay, which uses the Calcein AM, is now widely used to quantitate cell proliferation and cytotoxicity. For instance, this assay is used in drug screening programs and in chemosensitivity testing. Because only metabolically active cells cleave Calcein AM, these assays detect viable cells exclusively. The quantity of […] Calcein AM corresponds to the number of vital cells in the culture.
Human T-lymphoblastic leukemia cell line CEM; promyelocytic HL-60 and monocytic U937 leukemias; breast carcinoma cell lines MCF-7, BT549, MDA-MB-231; glioblastoma U87MG cells; cervical carcinoma cells HELA; sarcoma cells U2OS and Saos2; hepatocellular carcinoma HepG2; mouse fibroblasts NIH3T3; mouse immortalized bone marrow macrophages B2.4 and B10A.4; P388D1 and L1210 leukemia; B16 and B16F10 melanomas; human osteosarcoma HOS; human myeloid leukemia K-562; human skin melanoma G-361 were used for routine screening of compounds. The cells were maintained in Nunc/Corning 80 cm^2 plastic tissue culture flasks and cultured in cell culture medium (DMEM with 5 g/l glucose, 2 mM glutamine, 100 U/mL penicillin, 100 μg/mL streptomycin, 10% fetal calf serum and sodium bicarbonate).
The cell suspensions that were prepared and diluted according to the particular cell type and the expected target cell density (2.500-30.000 cells per well based on cell growth characteristics) were added by pipette ([…]) into 96/well microtiter plates. Inoculates were allowed a pre-incubation period of 24 hours at 37° C. and 5% CO2 for stabilisation. Four-fold dilutions of the intended test concentration were added at time zero in 20 μl aliquots to the microtiter plate wells. Usually, the compound tested was evaluated at six 4-fold dilutions. In routine testing, the highest well concentration was 100 μM, but it can be the matter of change dependent on the agent. All drug concentrations were examined in duplicates. Incubations of cells with the tested compounds lasted for 72 hours at 37° C., in 5% CO2 atmosphere and 100% humidity. At the end of the incubation period, the cells were assayed by using Calcein AM. Ten microliters of the stock solution were pipetted into each well and incubated for 1 hour. Fluorescence (FD) was measured with the Labsystem FIA Reader Fluoroscan Ascent (UK). The tumour cell survival (GI50) was calculated using the following equitation: TCS=(FDdrug exposed well/mean FDeontrol wells)×100%. The GI50 value, the drug concentration lethal to 50% of the tumour cells, was calculated from the obtained dose response curves.
Zero cytotoxicity of the novel compounds is the basic prerequisite for agricultural and tumor-unrelated applications. The cytoxicity of the novel compounds was tested on a panel of cell lines of different histogenetic and species origin (Table 9). We show herein that equal activities were found in all tumour cell lines tested, however, the non-malignant cells, e.g. NIH3T3 fibroblasts and normal human lymphocytes, were resistant to 2,6-disubstituted purine ribosides induced cytotoxicity. The compounds listed in Tab. 9 can be divided into 2 groups. The first group contains “classical cytokinins” represented by 6-substituted purine ribosides (which are known in the prior art). The second group contains the novel 2,6-disubstituted derivatives of these compounds. […] GI50 for NIH3T3 fibroblasts and normal human lymphocytes was always higher than 100 μM. The novel derivatives show no toxicity to normal and tumour cells in concentrations about 100 μM and thus are more suitable for agricultural applications than “classical cytokinins” (6-substituted purine riboside derivatives).

For test [2], the system named is human umbilical vein endothelial cells (HUVEC). The test is described as follows: Neutrophil mediated damage to endothelial cells (HUVEC viability, trypan blue). It counts as cell-based. On the set-up: death of HUVEC treated with TNF-primed neutrophils: dose or concentration left out as unconfirmed. The method, then: HUVEC were cultured to confluence in tissue culture plates and incubated overnight with neutrophils treated with 20 ng/ml TNFα (+TNF),
[…] Viable cells remain attached to the plastic wells and are visualised by phase contrast light microscopy. The image shown is representative of 3 separate experiments.
ANCA are predominantly IgG autoantibodies directed against constituents of primary granules of neutrophils (PR3 and MPO). ANCA associated vasculitis is the most common primary systemic small-vessel vasculitis in adults. The common pathology of this disease is focal necrotizing lesions of blood vessels and may affect different vessels and organs. […] Neutrophils were cultured for 10 hours in RPMI1640 medium containing 2% human AB serum, 2 mM L-glutamine and antibiotics (100 U/ml penicillin, […] streptomycin) and their apoptosis determined by staining with Giemsa stain and observing an apoptotic morphology by light microscopy. […] The ability of compound 10 to inhibit ANCA-induced neutrophil inflammatory functions was also determined Neutrophils were cultured in RPMI1640 medium containing 2% human AB serum, 2 mM L-glutamine and antibiotics (100 U/ml penicillin, […] streptomycin). […] ANCA stimulated degranulation of neutrophils was assessed by release of myeloperoxidase in to the medium over a 30 minute period, with MPO measured by ELISA. […]

A word on the GI50: it is the concentration at which growth is held to half of that of the control. For the molecule `COc1cccc(CNc2nc(Cl)nc3c2ncn3C2OC(CO)C(O)C2O)c1O` (stereo not drawn) [Compound 10, 2-Chloro-6-(2-hydroxy-3-methoxybenzylamino)purine riboside], in test [1], the GI50 was more than 100 µM. Besides, in test [2] (ANCA-activated TNF primed-neutrophils, 24 h (90% without compound)), the “HUVEC cell death in the presence of ANCA” value is 50%. In addition, the “death of HUVEC treated with TNF-primed neutrophils” value in test [2] (overnight / 24 h, without ANCA) is “completely block the death of HUVEC”.
